Holding throughout (assay): NCI tumour cell line growth inhibition, 48 h
Assay [1] concerns 786-0.
The test system of assay [2] is A498.
Assay [3] deals with A549.
The test system of assay [4] is CAKI-1.
Assay [5] relates to CCRF-CEM.
The test system of assay [6] is HCT-116.
The test system of assay [7] is HL-60.
For assay [8], the system named is KM12.
Assay [9] relates to LOX IMVI.
For assay [10], the system named is NCI-H226.
Assay [11] has as its system NCI-H23.
The test system of assay [12] is OVCAR-5.
The subject of assay [13] is OVCAR-8.
The subject of assay [14] is RXF 393.
Assay [15] concerns SK-MEL-5.
The test system of assay [16] is SNB-19.
Assay [17] has as its system SW-620.
For assay [18], the system named is UACC-257.
In assay [19] the test system is UO-31.
The subject of assay [20] is MDA-N.

Consider eleven compounds from ChEMBL document CHEMBL1201862, “PubChem BioAssay data set” (2004).

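Interpolation was linear, between the two tested concentrations surrounding the appropriate level; five concentrations were tested over 48 hours in 96-well plates. Abbreviation: GI50, concentration required for 50% inhibition of growth.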 Calls of active or inactive are those of the source. Cut-off read from the data, not from the text of the source: active = GI50 up to about 1.1 µM and inactive = higher. Some results are limits rather than exact numbers.

Regarding `Cc1ccc(C)c(NC(=O)C(=O)CC(=O)c2cccc3ccccc23)c1`, the GI50 in [1], in assay [2], in assay [3], in [4], in [5] and in assay [6] was > 100 µM (inactive) in each case. For the same compound, the GI50 in assay [7], in assay [8], in assay [9], in assay [10], in [11] and in [12] was > 100 µM (inactive) in each case. Further, the GI50 in [13], in assay [14], in assay [15], in assay [16], in assay [17] and in assay [18] was > 100 µM (inactive) each time. Moreover, the GI50 in [19] was > 100 µM (inactive).
With `COC(=O)c1nsc(OC)c1Cl`, the GI50 in [1], in assay [3], in assay [4], in assay [5], in assay [6] and in assay [7] was > 100 µM (inactive) throughout. Also, the GI50 in assay [8], in assay [9], in assay [20], in [10], in [11] and in [12] was > 100 µM (inactive) in each case. Moreover, the GI50 in [13], in assay [14], in assay [15], in assay [16], in [17] and in assay [18] was > 100 µM (inactive) each time. In assay [19], the GI50 was > 100 µM (inactive).
For `C[C@]12CCC3[C@@H](CC[C@@H]4c5nonc5CC[C@]34C)C1CCC(=O)N2` (stereo not given in full), the GI50 in assay [1], in [2], in [3], in [4], in assay [5] and in assay [6] was > 100 µM (inactive) throughout. Besides, the GI50 was 93.8 µM (inactive) in assay [7]; > 100 µM (inactive) in [8]; > 100 µM (inactive) in assay [9]; > 100 µM (inactive) in assay [10]; > 100 µM (inactive) in assay [11]; > 100 µM (inactive) in assay [12]. Further, the GI50 in [13], in assay [14], in assay [15], in [16], in [17] and in assay [18] was > 100 µM (inactive) each time. Moreover, the GI50 in [19] was > 100 µM (inactive).
Turning to `COc1cc(C2OC(N)=C(C#N)C3=C2C(C)CCC3)cc(OC)c1OC` (stereo not given), the GI50 was 42.6 µM (inactive) in assay [1]; > 100 µM (inactive) in assay [4]; > 100 µM (inactive) in assay [5]; > 100 µM (inactive) in assay [6]; > 100 µM (inactive) in assay [7]; > 100 µM (inactive) in assay [8]. Moreover, the GI50 was > 100 µM (inactive) in [9]; > 100 µM (inactive) in assay [20]; 68.7 µM (inactive) in assay [10]; > 100 µM (inactive) in assay [11]; > 100 µM (inactive) in [12]; 63 µM (inactive) in assay [13]. The GI50 was 21.9 µM (inactive) in [14]; > 100 µM (inactive) in [15]; 72.3 µM (inactive) in assay [16]; > 100 µM (inactive) in assay [17]; > 100 µM (inactive) in assay [18]; > 100 µM (inactive) in assay [19].
As to `CN/C(=N\c1ccc(OC)c2ccccc12)SC`, the GI50 in assay [1], in assay [3], in assay [4], in assay [5], in assay [6] and in [7] was > 10 µM (inactive) throughout. For the same compound, the GI50 in assay [8] is > 10 µM (inactive); in assay [9], > 10 µM (inactive); in assay [20], > 10 µM (inactive); in [11], > 10 µM (inactive); in assay [12], 2.86 µM (inactive); in [13], > 10 µM (inactive). For the same compound, the GI50 in assay [15], in assay [16], in assay [17] and in [18] was > 10 µM (inactive) throughout.
For the compound `COc1ccc2c(c1)SC1=Nc3sc4cc(OC)ccc4[n+]3CN12`, the GI50 in assay [1] was 29.9 µM (inactive); in assay [3] it was 29.1 µM (inactive); in [4] it was 32.9 µM (inactive); in assay [5] it was 20.3 µM (inactive); in assay [6] it was 41 µM (inactive); in [7], 9.29 µM (inactive). Further, the GI50 in [8] is 11.2 µM (inactive); in [20] it was 26.1 µM (inactive); in assay [11], 15.7 µM (inactive); in assay [12] it was 96.2 µM (inactive); in assay [13], 29.4 µM (inactive); in assay [15], 4.1 µM (inactive). The GI50 was 54.3 µM (inactive) in assay [16], 35.7 µM (inactive) in [17], 30.4 µM (inactive) in assay [18] and 53 µM (inactive) in assay [19].
`COc1cc2oc(=O)cc(C)c2cc1OC`: the GI50 in assay [1] is > 100 µM (inactive); in assay [2], 40.2 µM (inactive); in assay [3] it was > 100 µM (inactive); in assay [5], > 100 µM (inactive); in [6], > 100 µM (inactive); in assay [8] it was > 100 µM (inactive). For the same compound, the GI50 in [9], in assay [20], in [10], in assay [11], in [12] and in assay [13] was > 100 µM (inactive) in each case. The GI50 in [15] was > 100 µM (inactive); in [16], > 100 µM (inactive); in assay [17], > 100 µM (inactive); in assay [18] it was > 100 µM (inactive); in [19], 66.7 µM (inactive).
On to `CCOC(=O)c1c(O)cc(=O)[nH]c1N1CCOCC1`, for which the GI50 in assay [1], in assay [2], in assay [3], in assay [4], in assay [5] and in assay [6] was > 100 µM (inactive) each time. Moreover, the GI50 in assay [8], in [9], in assay [20], in assay [10], in assay [11] and in [12] was > 100 µM (inactive) in each case. The GI50 in assay [13], in [15], in assay [16], in assay [17], in assay [18] and in [19] was > 100 µM (inactive) throughout.
In the case of `CC1(C)C2CCC1(C)C(N/C(Sc1ccccc1)=C(/C(Cl)=C(Cl)Cl)[N+](=O)[O-])C2` (stereo not given), the GI50 in assay [1] was 14 µM (inactive); in [2], 15 µM (inactive); in [3], 14.5 µM (inactive); in [4], 15.2 µM (inactive); in assay [6], 15.5 µM (inactive); in assay [8], 4.8 µM (inactive). Also, the GI50 in [20] is 10.6 µM (inactive); in assay [10], 16.8 µM (inactive); in [11], 12.3 µM (inactive); in assay [12] it was 13.9 µM (inactive); in assay [13], 13.8 µM (inactive); in assay [16] it was 18.1 µM (inactive). The GI50 was 11.7 µM (inactive) in [17], 14.3 µM (inactive) in assay [18] and 13.2 µM (inactive) in assay [19].
On to `CCCCCCCCCCCCCCCCCC(=O)NCC(COP(=O)([O-])OCC[N+](C)(C)C)OC` (stereo not given), for which the GI50 is 1.5 µM (inactive) in assay [1]; 3.03 µM (inactive) in assay [2]; 10.3 µM (inactive) in [3]; 2.44 µM (inactive) in assay [4]; 2.02 µM (inactive) in assay [5]; 5.66 µM (inactive) in assay [6]. Besides, the GI50 is 1.16 µM (inactive) in assay [7]; 0.766 µM (active) in assay [8]; 10.6 µM (inactive) in assay [9]; 3.44 µM (inactive) in assay [10]; 14.3 µM (inactive) in [11]; 4.09 µM (inactive) in assay [12]. In addition, the GI50 in assay [13] is 10.9 µM (inactive); in assay [14] it was 0.652 µM (active); in assay [15] it was 15.2 µM (inactive); in assay [16] it was 1.91 µM (inactive); in assay [17], 10.9 µM (inactive); in assay [18] it was 15.9 µM (inactive). Further, the GI50 in assay [19] is 16.9 µM (inactive).
Consider `Cn1nnc2c(C(N)=O)ncn2c1=O` [TEMOZOLOMIDE], for which the GI50 in [1] was > 100 µM (inactive); in [3], > 100 µM (inactive); in assay [4], > 100 µM (inactive); in assay [5] it was 78.3 µM (inactive); in assay [6], > 100 µM (inactive); in assay [7], 85.5 µM (inactive). The GI50 in assay [8] was > 100 µM (inactive); in assay [9], 82 µM (inactive); in assay [20], > 100 µM (inactive); in assay [10], > 100 µM (inactive); in assay [11], > 100 µM (inactive); in assay [12], > 100 µM (inactive). Moreover, the GI50 in [13], in assay [14], in assay [15], in [16], in assay [17] and in assay [18] was > 100 µM (inactive) throughout. Also, the GI50 in assay [19] is > 74 µM (inactive).
